We go through 26 compounds from ChEMBL document CHEMBL3588854, “Synthesis of 5-isoxazol-3-yl-pyrimidine nucleosides as potential antileishmanial agents” (Bioorg Med Chem Lett, 2015).

Molecules are shown by their SMILES. pIC50: −log10 of the molar value. Activity calls are given as the source filed them. No cut-off for these calls is given here.

For the first assay, the system named is Leishmania donovani. The experiment in a line: Antileishmanial activity against amastigote stage of Leishmania donovani MHOM/ET/67/HU3 infected in mouse RAW264.7 cells assessed as inhibition of parasite growth after 48 hrs by SYBR green I incorporation assay. In kind it is functional, organism-based.
Details: not given
Consider `CC(=O)OC[C@H]1O[C@@H](n2cc(-c3cc(-c4ccccc4)on3)c(=O)[nH]c2=O)C[C@@H]1N=[N+]=[N-]`, for which the “growth inhibition (GI)” value is “inactive”. Consider `CC(=O)OC[C@H]1O[C@@H](n2cc(-c3cc(-c4ccccc4)on3)c(=O)[nH]c2=O)C[C@@H]1OC(C)=O`, for which the “growth inhibition (GI)” value was “inactive”. `CC(=O)OC[C@H]1O[C@@H](n2cc(-c3cc(-c4ccc(Br)cc4)on3)c(=O)[nH]c2=O)C[C@@H]1OC(C)=O`: the “growth inhibition (GI)” value is “inactive”. `CC(=O)OC[C@@H]1C=C[C@H](n2cc(-c3cc(-c4ccccc4)on3)c(=O)[nH]c2=O)O1`: the “growth inhibition (GI)” value was “inactive”. Turning to `CC(=O)OC[C@H]1O[C@@H](n2cc(-c3cc(CBr)on3)c(=O)[nH]c2=O)C[C@@H]1OC(C)=O`, the “growth inhibition (GI)” value is “inactive”.

Turning to `CC(=O)OC[C@H]1O[C@@H](n2cc(-c3cc(-c4ccccc4)on3)c(=O)[nH]c2=O)[C@H](OC(C)=O)[C@@H]1OC(C)=O`, the “growth inhibition (GI)” value is “inactive”.

Still in this assay, the particulars now being: MHOM/ET/67/HU3, RAW264.7, 48 h.
As to `CC(=O)OC[C@H]1O[C@@H](n2cc(-c3cc(CO)on3)c(N)nc2=O)C[C@@H]1OC(C)=O`, the pIC50 is 5.50. Regarding `CC(=O)OC[C@H]1O[C@@H](n2cc(-c3cc(-c4ccc(F)cc4)on3)c(=O)[nH]c2=O)[C@H](OC(C)=O)[C@@H]1OC(C)=O`, the pIC50 was 6.11.

`CCCCCCCCc1cc(-c2cn([C@H]3C[C@H](O)[C@@H](CO)O3)c(=O)[nH]c2=O)no1`: the pIC50 was below 4.90. As for `C[C@@H]1[C@H](O)[C@@H](C)/C=C/C=C/C=C/C=C/C=C/C=C/C=C/[C@H](O[C@@H]2O[C@H](C)[C@@H](O)[C@H](N)[C@@H]2O)C[C@@H]2O[C@](O)(C[C@@H](O)C[C@@H](O)[C@H](O)CC[C@@H](O)C[C@@H](O)CC(=O)O[C@H]1C)C[C@H](O)[C@H]2C(=O)O` [AMPHOTERICIN B], the pIC50 was 6.51. Take `Nc1nc(=O)n([C@H]2C[C@H](O)[C@@H](CO)O2)cc1-c1cc(-c2ccccc2)on1`: the pIC50 was 6.21.

Consider `CC(=O)OC[C@H]1O[C@@H](n2cc(-c3cc(-c4ccccc4)on3)c(N)nc2=O)C[C@@H]1OC(C)=O`, for which the pIC50 was 5.79. Same read-out and setting: the value for `O=c1[nH]c(=O)n([C@@H]2O[C@H](CO)[C@@H](O)[C@H]2O)cc1-c1cc(-c2ccc(F)cc2)on1` was 5.83. On the same count and under the same terms, the value for `CC(=O)OC[C@H]1O[C@@H](n2cc(-c3cc(-c4ccc(F)cc4)on3)c(=O)[nH]c2=O)C[C@@H]1OC(C)=O` was 6.15; that for `CC(=O)OC[C@H]1O[C@@H](n2cc(-c3cc(CO)on3)c(=O)[nH]c2=O)C[C@@H]1OC(C)=O` was 5.47. On the same count and under the same terms, the value for `O=c1[nH]c(=O)n([C@H]2C[C@H](O)[C@@H](CO)O2)cc1-c1cc(CO)on1` was 6.14; that for `CCCCCCCCc1cc(-c2cn([C@H]3C[C@H](OC(C)=O)[C@@H](COC(C)=O)O3)c(=O)[nH]c2=O)no1` was 4.68; that for `O=c1[nH]c(=O)n([C@H]2C[C@H](O)[C@@H](CO)O2)cc1-c1cc(-c2ccccc2)on1` was 6.12. With `CC(=O)OC[C@H]1O[C@@H](n2cc(-c3cc(-c4ccc(C)cc4)on3)c(=O)[nH]c2=O)C[C@@H]1OC(C)=O`, the pIC50 was 5.77. Still for that read-out and setting: the value for `[N-]=[N+]=N[C@H]1C[C@H](n2cc(-c3cc(CO)on3)c(=O)[nH]c2=O)O[C@@H]1CO` was 6.31; that for `O=c1[nH]c(=O)n([C@H]2C=C[C@@H](CO)O2)cc1-c1cc(-c2ccccc2)on1` was 5.34. The same measure, in the same setting: in the case of `CC(=O)OC[C@H]1O[C@@H](n2cc(-c3cc(-c4ccc(F)cc4)on3)c(=O)[nH]c2=O)C[C@@H]1N=[N+]=[N-]` it was below 4.90. Consider `CC(=O)OC[C@H]1O[C@@H](n2cc(-c3cc(CO)on3)c(=O)[nH]c2=O)C[C@@H]1N=[N+]=[N-]`, for which the negative-log IC50 (pIC50) is below 4.90. The same measure, in the same setting: in the case of `CCCCCCCCCCCCCCCCOP(=O)([O-])OCC[N+](C)(C)C` [MILTEFOSINE] it was 5.24; in that of `O=c1[nH]c(=O)n([C@H]2C[C@H](O)[C@@H](CO)O2)cc1-c1cc(-c2ccc(F)cc2)on1`, 6.24; in that of `Cc1ccc(-c2cc(-c3cn([C@H]4C[C@H](O)[C@@H](CO)O4)c(=O)[nH]c3=O)no2)cc1`, 6.21.
